Assay results taken from patent publication US8815306B2, “Methods and compositions for promoting bone and joint health” (Metaproteomics, LLC, priority 2007, dated 2014).
Where a name gives a salt, the structure may show the parent alone.

Columns and labels:
[1] = system: TNFα induced MMP-13 expression; assay: TNFα induced MMP-13 expression in human chondrocyte cell line SW1353; conditions: for TNFa Stimulated % Activity average (MMP-13 expression): Table 6, TNF pos = 100%
Description: The SW1353 human chondrocyte cell line was used as described below.
Cells were grown and subcultured in 96-well plates at a density of 8×10^4 cells per well and allowed to reach ˜80% confluence overnight. Test compounds in medium were added to the cells at a final concentration of 0.1% DMSO. Following one hour of incubation with the test compounds, TNFα (10 ng/ml) or medium alone was added to the cell wells and incubation continued for 24 hours. The supernatant media was subsequently collected for MMP-13 determination.
Determination of MMP-13: A commercial, non-radioactive procedure for quantification of MMP-13 was used according to the manufacturer's instructions using MMP-13 as a standard. A minimum of 3 wells were used for each test condition.
The amount of MMP-13 release into the medium was determined by comparison of the MMP-13 generated in the presence or absence of TNFα and test compounds. A minimum of three wells were used for each test condition. The basal MMP-without 13 levels without TNFα stimulation was subtracted from TNF stimulation to determine the TNFα induced MMP-13 expression in the medium and the levels normalized to 100%. The percent activity of test compounds was measured in the presence of TNFα and referred as TNFα induced MMP-13 expression.

[2] = system: TNFα induced MMP-13 expression; assay: Synergy (Combinational Index) of THIAA and berberine on TNFα induced MMP-13 expression in SW1353; format: cell-based; conditions: Homo sapiens
Description: The SW1353 human chondrocyte cell line was used as described in Example 1.
The human chondrocyte cell line, SW1353 were maintained and treatments conditions were described in Example 1. […]; 1:10; 5:1; 2:1; 1:1; 1:2; 1:5; 1:10; […].
Determination of MMP-13 expression—The MMP-13 levels in the medium was measured as described in Example 1.
Median effect calculations were performed using CalcuSyn (Biosoft, Ferguson, Mo.). […] A minimum of three concentrations were used to determine the dose-response curve and a median inhibitory concentration (IC50).
Synergy—Combinational Index (CI) values were measured using CalcuSyn (Biosoft, Ferguson, Mo.). […]

COc1ccc2cc3[n+](cc2c1OC)CCc1cc2c(cc1-3)OCO2 [Berberine sulfate]
Dose dependence of modulation of TNFα induced MMP-13 expression ([1]; Example 3, SW1353): dose dependently modulated | IC50 ([1]; Homo sapiens, SW1353, read-out: IC50 (TNFa induced MMP-13 expression)): 0.15 µg/mL | TNFa Stimulated % Activity average (MMP-13 expression) ([1]; 0.05 ug/mL, SW1353): 99% | TNFa Stimulated % Activity average (MMP-13 expression) ([1]; 0.1 ug/mL, SW1353): 50% | TNFa Stimulated % Activity average (MMP-13 expression) ([1]; 0.5 ug/mL, SW1353): 4% | TNFa Stimulated % Activity average (MMP-13 expression) ([1]; 1 ug/mL, SW1353): −1% | IC50 ([2]; Table 7B, single agents, read-out: Dm (median effect dose, TNFα induced MMP-13 expression)): 0.254 µg/mL | IC50 ([2]; text b137, single agents, read-out: IC50 (TNFα induced MMP-13 expression)): 0.254 µg/mL
